{
  "source": "patent US10695387B2",
  "about": "“Extracts of microalgae and plants for regulating sebum production” (Cutech SRL, priority 2014, dated 2020)",
  "tested_on": "human sebaceous glands (hSGs)",
  "test": "Ex-vivo culture of human sebaceous glands (hSGs), quantification of sebum content (lipids/proteins) vs control",
  "assay_type": "cell-based",
  "settings": "positive control",
  "text": "All the reported examples are intended to show the modulation of sebum production exerted by the experimental preparations on human hSGs microdissected and cultivated up to day 6. At the end of the culture time, the sebum is extracted and quantified from each experimental group of hSGs and then normalized by the proteins extracted from the residual hSG material (mg lipids/mg proteins). As a result, the biological activity of the tested compounds is inferred by comparing the ratio lipids/proteins of the treated glands with that of the control group.\nUsing micro-scissors and tweezers, hSGs were isolated from the pilosebaceous units of a scalp skin sample. They were seeded in 24-well plates at the density of 8 hSGs/well and then cultivated in 500 μl of modified William E medium. After 24 hours of culture the viability of the hSGs was assessed by means of resazurine assay. Briefly, each hSGs group was transferred onto a microplate well with 200 μl of 10% resazurin culture medium for 2 hours. During this period the resazurin, a non-fluorescent blue dye, is reduced by living cells to the pink coloured and highly red fluorescent resorufin. At the end of the incubation, the medium was withdrawn and analyzed for the resazurin fluorescence in a plate reader ([…]). The fluorescence signal positively correlates with the hSGs viability. Since the resazurin test is not toxic, the hSGs were then seeded in a 24-well plate and cultivated with the experimental culture media in order to start the treatments. The control received William E medium appropriately modified, while the samples submitted to experimental treatments received the same medium supplemented with experimental extracts. The culture medium was renewed every other day. After six days of organ culture, the viability of the hSGs was again assessed via resazurine assay and then, having attested their good viability, each group of hGSs was collected and analyzed for quantifying the sebum content.\nEach hSG group was homogenized in 100 μl of isopropyl alcohol;\nthe sample was centrifuged at 14,000 G for 5 minutes and then the supernatant (containing the extracted sebum) was collected;\nthe sebum extract was analyzed in triplicate with a Direct Detect IR Spectrometer (Millipore), which provided the total lipid concentration of the supernatant (mg/ml);\nthe total lipids of the hSGs was quantified multiplying the supernatant lipid concentration (indention 3) by the volume of isopropyl alcohol adopted for the lipid extraction (indention 1);\nthe pellet remaining from indention 2 was dried by means of a vacuum dry evaporator and then again homogenized in 50 μl of proteolytic buffer (20 mM Tris/HCl pH 7.5, 150 mM NaCl, 2 mM EDTA, 0.5% Triton X-100, 2 mM DTT, 1% protease inhibitor cocktail);\nafter an appropriate incubation time, this extractive mixture was centrifuged at 14,000 G for 10 minutes and the supernatant was collected and analyzed in triplicate with a Direct Detect IR Spectrometer (Millipore);\nthe obtained total protein concentration was multiplied by the extractive volume (indention 5) in order to quantify the total proteins of the hSGs;\nthe total lipid amount (indention 4), i.e. the amount of sebum, was divided by the total proteins (indention 7) in order to obtain the normalized amount of lipids per mg of proteins (mg of lipids/mg of proteins).\nThe amounts of normalized lipids obtained from the treated groups, i.e. the sebum produced by each group of hSGs, were expressed in percentages with respect to the value obtained in the control group, in order to point out the regulatory effect performed by the experimental treatment.",
  "data": [
    {"smiles": "COc1cc(CNC(=O)CCCC/C=C/C(C)C)ccc1O", "note": "[Capsaicin]", "values": [
      {"measurement": "Sebum content in hSGs, Average, % ratio of the control group performance", "setting": "Table 2 experiment, 5 μM", "result": 90.3, "unit": "%"},
      {"measurement": "Sebum content in hSGs, Average, % ratio of the control group performance", "setting": "Table 5 experiment, Amount 0", "result": 68.5, "unit": "%"},
      {"measurement": "Sebum content in hSGs, Average, % ratio of the control group performance", "setting": "Table 6 experiment (different donor), Amount 0", "result": 59.2, "unit": "%"},
      {"measurement": "Sebum content in hSGs, Average, % ratio of the control group performance", "setting": "Table 7 experiment, Amount 0", "result": 97.4, "unit": "%"},
      {"measurement": "Sebum content in hSGs, Average, % ratio of the control group performance", "setting": "Table 8 experiment, Amount 0", "result": 91.9, "unit": "%"},
      {"measurement": "Sebum content in hSGs, Average, % ratio of the control group performance", "setting": "Table 10 experiment, 5 μg/ml", "result": 62.9, "unit": "%"}
    ]}
  ]
}
